Active and inactive are the calls of the source. How the calls were made is not given here.
Tested on: rodent carcinogenicity bioassays, tumor incidence
Assay: CCRIS carcinogenicity studies
Method in brief: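 NCI-built, expert-reviewed records of carcinogenicity and related test outcomes (mutagenicity, tumor promotion/inhibition) compiled from published and report sources, historical span 1985-2011, not updated.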

c1ccc2ccccc2c1
carcinogen call (Species: MOUSE, Strain/Sex: B6C3F1/FEMALE, Route: INHALATION, Dose: 0, 10, 30 PPM 6 HR/D 5 D/WK FOR 104 WK (STUDY DURATION: 104 WK), Dose: 0, 10, 30 PPM 6 HR/D 5 D/WK FOR 104 WK (STUDY DURATION: 104 WK), Tumor Site: Type of Lesion: LUNG: ALVEOLAR/BRONCHIOLAR ADENOMA OR CARCINOMA): active; positive
carcinogen call (Species: MOUSE, Strain/Sex: B6C3F1/MALE, Route: INHALATION, Dose: 0, 10, 30 PPM 6 HR/D 5 D/WK FOR 104 WK (STUDY DURATION: 104 WK), Dose: 0, 10, 30 PPM 6 HR/D 5 D/WK FOR 104 WK (STUDY DURATION: 104 WK)): inactive; negative
carcinogen call (Species: MOUSE, Strain/Sex: CD-1/FEMALE, Route: INTRAPERITONEAL, Dose: 0, 0.25, 0.5, 1.0 UMOL IN DMSO TO NEWBORN MICE ON DAY 1, 8 AND 15 OF LIFE RESPECTIVELY (TOTAL DOSE: 1.75 UMOL) (STUDY DU, Dose: 0, 0.25, 0.5, 1.0 UMOL IN DMSO TO NEWBORN MICE ON DAY 1, 8 AND 15 OF LIFE RESPECTIVELY (TOTAL DOSE: 1.75 UMOL) (STUDY DU): inactive; negative
carcinogen call (Species: MOUSE, Strain/Sex: CD-1/MALE, Route: INTRAPERITONEAL, Dose: 0, 0.25, O.5, 1.0 UMOL IN DMSO TO NEWBORN MICE ON DAY 1,8 AND 15 OF LIFE RESPECTIVELY (TOTAL DOSE: 1.75 UMOL) (STUDY DUR, Dose: 0, 0.25, O.5, 1.0 UMOL IN DMSO TO NEWBORN MICE ON DAY 1,8 AND 15 OF LIFE RESPECTIVELY (TOTAL DOSE: 1.75 UMOL) (STUDY DUR): inactive; negative
carcinogen call (Species: RAT, Strain/Sex: F344/N/FEMALE, Route: INHALATION, Dose: 0, 10, 30, 60 PPM 6 HR/D 5 D/WK FOR 105 WK (STUDY DURATION: 105 WK), Dose: 0, 10, 30, 60 PPM 6 HR/D 5 D/WK FOR 105 WK (STUDY DURATION: 105 WK), Tumor Site: Type of Lesion: NOSE: NEUROBLASTOMA): active; positive
carcinogen call (Species: RAT, Strain/Sex: F344/N/MALE, Route: INHALATION, Dose: 0, 10, 30, 60 PPM 6 HR/D 5 D/WK FOR 105 WK (STUDY DURATION: 105 WK), Dose: 0, 10, 30, 60 PPM 6 HR/D 5 D/WK FOR 105 WK (STUDY DURATION: 105 WK), Tumor Site: Type of Lesion: NOSE: ADENOMA): active; positive

O=C([O-])c1cc(N=Nc2ccc(-c3ccc(N/N=c4/c(=O)cc/c(=N\Nc5cc(S(=O)(=O)[O-])ccc5[O-])c4=O)cc3)cc2)ccc1[O-].[Cu+2].[Na+].[Na+]
carcinogen call (Species: RAT, Strain/Sex: F344/FEMALE, Route: ORAL, Dose: 0, 190, 375, 750, 1500, 3000 PPM IN DIET FOR 91 D (STUDY DURATION: 93 D), Dose: 0, 190, 375, 750, 1500, 3000 PPM IN DIET FOR 91 D (STUDY DURATION: 93 D), Tumor Site: Type of Lesion: LIVER: HEPATOCELLULAR CARCINOMA OR NEOPLASTIC NODULE, FOCI OF CELLULAR ALTERATION OR BASOPHILIC FOCI): active; positive
carcinogen call (Species: RAT, Strain/Sex: F344/MALE, Route: ORAL, Dose: 0, 190, 375, 750, 1500, 3000 PPM IN DIET FOR 91 D (STUDY DURATION: 93 D), Dose: 0, 190, 375, 750, 1500, 3000 PPM IN DIET FOR 91 D (STUDY DURATION: 93 D), Tumor Site: Type of Lesion: LIVER: FOCI OF CELLULAR ALTERATION OR BASOPHILIC FOCI): active; positive

CN(C)C(=O)NN=O
carcinogen call (Species: HAMSTER, Strain/Sex: SYRIAN/FEMALE, Route: SUBCUTANEOUS, Dose: 40 MG/KG 1/WK, Tumor Site: Type of Lesion: FORESTOMACH: SQUAMOUS CELL CARCINOMA, MAMMARY GLAND: ADENOCARCINOMA OR ADENOACANTHOMA, UTERUS: ADENOACANTHOMA, Tumor Site: Type of Lesion: FORESTOMACH: SQUAMOUS CELL CARCINOMA, MAMMARY GLAND: ADENOCARCINOMA OR ADENOACANTHOMA, UTERUS: ADENOACANTHOMA): active; positive
carcinogen call (Species: HAMSTER, Strain/Sex: SYRIAN/MALE, Route: SUBCUTANEOUS, Dose: 40 MG/KG 1/WK, Tumor Site: Type of Lesion: FORESTOMACH: SQUAMOUS CELL CARCINOMA): active; positive
carcinogen call (Species: MOUSE, Strain/Sex: C3H/FEMALE, Route: SUBCUTANEOUS, Dose: 80 MG/KG 1/WK (TOTAL AVE DOSE 1015 MG/KG), Tumor Site: Type of Lesion: LYMPHATIC SYSTEM: MALIGNANT LYMPHOMA): active; positive
carcinogen call (Species: MOUSE, Strain/Sex: C3H/MALE, Route: SUBCUTANEOUS, Dose: 80 MG/KG 1/WK (TOTAL AVE DOSE 1073 MG/KG), Tumor Site: Type of Lesion: LYMPHATIC SYSTEM: MALIGNANT LYMPHOMA): active; positive

COc1cc2c(c3oc(=O)c4c(c13)CCOC4=O)[C@@H]1C=CO[C@@H]1O2
carcinogen call (Species: HUMAN, Route: ORAL, Tumor Site: Type of Lesion: LIVER): active; positive
carcinogen call (Species: RAT, Route: ORAL, Tumor Site: Type of Lesion: KIDNEY): active; positive

O=CC(=O)C[C@H](O)[C@H](O)CO
carcinogen call (Species: MOUSE, Strain/Sex: CD-1/FEMALE, Route: DERMAL, Dose: 0, 20 UMOL/0.1 ML DMSO 2/WK FOR 5 WK FOLLOWED 1 WK LATER BY 0.1 ML ACETONE 2/WK FOR 47 WK (STUDY DURATION: 52 WK)): inactive; negative

CCC(=O)N(O)c1ccc(-c2ccccc2)cc1
carcinogen call (Species: RAT, Strain/Sex: STRAIN-CD/FEMALE, Route: INTRAPERITONEAL, Dose: 0, 100 UMOL/KG BW 2/WK FOR 6 WK (STUDY DURATION: 62 WK)): inactive; negative

Nc1nc2c(ncn2[C@@H]2C[C@H](CO)[C@H]2CO)c(=O)[nH]1
carcinogen call (Species: Mouse, Strain/Sex: CD-1/Female (60/Group), Route: Oral, Dose: 0, 30, 150, 750 mg/kg in diet for 104 wk, Dose: 0, 30, 150, 750 mg/kg in diet for 104 wk, Tumor Site: Type of Lesion: Upper digestive tract: squamous cell papilloma and carcinoma (0/60 and 0/60 in controls vs 0/60, 3/60, and 4/60, respect): active; positive
carcinogen call (Species: Mouse, Strain/Sex: CD-1/Male (60/Group), Route: Oral, Dose: 0, 10, 50, 250 mg/kg in diet for 104 wk, Dose: 0, 10, 50, 250 mg/kg in diet for 104 wk, Tumor Site: Type of Lesion: Upper digestive tract: squamous cell papilloma or carcinoma (0/60 and 0/60 in controls vs 0/60, 3/60, and 4/60, respecti): active; positive

CCc1cc(C(N)=S)ccn1
carcinogen call (Species: MOUSE, Route: ORAL, Tumor Site: Type of Lesion: THYROID GLAND): active; positive
carcinogen call (Species: MOUSE, Strain/Sex: B6C3F1/FEMALE, Route: ORAL, Dose: 0, 1000, 2000 PPM IN DIET, Dose: 0, 1000, 2000 PPM IN DIET): inactive; negative
carcinogen call (Species: MOUSE, Strain/Sex: B6C3F1/MALE, Route: ORAL, Dose: 0, 1000, 2000 PPM IN DIET, Dose: 0, 1000, 2000 PPM IN DIET): inactive; negative
carcinogen call (Species: RAT, Strain/Sex: F344/FEMALE, Route: ORAL, Dose: 0, 1500, 3000 PPM IN DIET, Dose: 0, 1500, 3000 PPM IN DIET): inactive; negative
carcinogen call (Species: RAT, Strain/Sex: F344/MALE, Route: ORAL, Dose: 0, 1500, 3000 PPM IN DIET, Dose: 0, 1500, 3000 PPM IN DIET): inactive; negative

c1ccc2c(c1)ccc1cc3ccc4ccccc4c3nc12
carcinogen call (Species: MOUSE, Strain/Sex: CD-1/FEMALE, Route: INTRAPERITONEAL, Dose: 0, 175 NMOL (TOTAL DOSE) ADMINISTERED AS 1/7 OF DOSE WITHIN 24 HR AFTER BIRTH, 2/7 OF DOSE AT 8 D OLD, 4/7 OF DOSE AT 15, Tumor Site: Type of Lesion: LUNG: TUMOR): active; positive
carcinogen call (Species: MOUSE, Strain/Sex: CD-1/MALE, Route: INTRAPERITONEAL, Dose: 0, 175 NMOL (TOTAL DOSE) ADMINISTERED AS 1/7 OF DOSE WITHIN 24 HR AFTER BIRTH, 2/7 OF DOSE AT 8 D OLD, 4/7 OF DOSE AT 15, Tumor Site: Type of Lesion: LIVER: TUMOR, LUNG: TUMOR): active; positive

c1ccc2c3c(ccc2c1)-c1cccc2cccc-3c12
carcinogen call (Species: MOUSE, Route: DERMAL, Tumor Site: Type of Lesion: INTEGUMENTARY SYSTEM (SKIN)): active; positive
carcinogen call (Species: MOUSE, Strain/Sex: CD-1/FEMALE, Route: INTRAPERITONEAL, Dose: 0, 0.11, 0.275, 1.1 UMOL (TOTAL DOSE) ADMINISTERED OVER DAYS 1, 8, AND 15 OF LIFE (STUDY DURATION: 52 WEEKS), Dose: 0, 0.11, 0.275, 1.1 UMOL (TOTAL DOSE) ADMINISTERED OVER DAYS 1, 8, AND 15 OF LIFE (STUDY DURATION: 52 WEEKS), Tumor Site: Type of Lesion: LUNG: ALVEOLAR/BRONCHIOLAR CARCINOMA): active; positive
carcinogen call (Species: MOUSE, Strain/Sex: CD-1/MALE, Route: INTRAPERITONEAL, Dose: 0, 0.11, 0.275, 1.1 UMOL (TOTAL DOSE) ADMINISTERED OVER DAYS 1, 8, AND 15 OF LIFE (STUDY DURATION: 52 WEEKS), Dose: 0, 0.11, 0.275, 1.1 UMOL (TOTAL DOSE) ADMINISTERED OVER DAYS 1, 8, AND 15 OF LIFE (STUDY DURATION: 52 WEEKS), Tumor Site: Type of Lesion: LUNG: ALVEOLAR/BRONCHIOLAR CARCINOMA, LIVER: ADENOMA OR CARCINOMA): active; positive
carcinogen call (Species: RAT, Strain/Sex: OSBORNE-MENDEL/FEMALE, Route: LUNG IMPLANT, Dose: 0, 0.2, 1.0, 5.0 MG IN BEESWAX/TRIOCTANOIN (STUDY DURATION: LIFETIME), Dose: 0, 0.2, 1.0, 5.0 MG IN BEESWAX/TRIOCTANOIN (STUDY DURATION: LIFETIME), Tumor Site: Type of Lesion: LUNG: EPIDERMOID CARCINOMA): active; positive

Reference: PubChem BioAssay AID1259411 (Chemical Carcinogenesis Research Information System (CCRIS), 2018)
